{"source": "patent US12037322B2", "about": "“AHR agonists” (Eli Lilly and Company, priority 2021, dated 2024)", "data": [{"target": "T1, hAHR (Homo sapiens, UniProt P35869)", "T1 construct": "expressed in transfected cells", "T1 sequence (P35869 11-848)": "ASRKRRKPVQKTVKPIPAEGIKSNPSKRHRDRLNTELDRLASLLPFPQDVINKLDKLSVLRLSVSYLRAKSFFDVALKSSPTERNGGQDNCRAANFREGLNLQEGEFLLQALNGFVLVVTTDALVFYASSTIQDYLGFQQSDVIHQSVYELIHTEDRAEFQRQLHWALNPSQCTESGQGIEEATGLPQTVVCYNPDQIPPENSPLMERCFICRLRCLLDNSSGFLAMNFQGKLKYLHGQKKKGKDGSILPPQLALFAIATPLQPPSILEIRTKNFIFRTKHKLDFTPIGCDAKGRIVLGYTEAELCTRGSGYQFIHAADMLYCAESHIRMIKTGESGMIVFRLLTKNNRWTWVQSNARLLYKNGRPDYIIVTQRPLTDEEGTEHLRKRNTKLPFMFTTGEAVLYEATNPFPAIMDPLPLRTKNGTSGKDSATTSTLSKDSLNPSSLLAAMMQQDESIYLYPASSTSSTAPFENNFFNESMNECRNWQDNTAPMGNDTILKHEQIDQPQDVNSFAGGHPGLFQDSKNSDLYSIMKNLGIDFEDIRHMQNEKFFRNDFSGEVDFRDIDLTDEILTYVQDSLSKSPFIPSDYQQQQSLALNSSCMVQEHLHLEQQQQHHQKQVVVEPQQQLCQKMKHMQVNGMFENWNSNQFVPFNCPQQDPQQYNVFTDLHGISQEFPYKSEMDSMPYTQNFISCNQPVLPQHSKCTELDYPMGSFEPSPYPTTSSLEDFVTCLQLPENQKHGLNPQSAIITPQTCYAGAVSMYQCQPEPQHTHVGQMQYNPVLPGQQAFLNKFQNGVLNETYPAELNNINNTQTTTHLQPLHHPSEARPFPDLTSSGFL", "experiment": "hAHR nuclear translocation assay", "assay_type": "cell-based", "settings": "Jump-In T-REx HEK293 cells expressing AhR-EGFP; 45 min incubation; ratio of EGFP intensity in nuclear over cytosol; 20-point curve", "outline": "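Agonist potency derived by 4-parameter logistic fit of nuclear/cytosolic EGFP intensity ratio, imaged in fixed HEK293 cells expressing doxycycline-inducible AhR-EGFP. Cells saw compound for 45 min at 37° C in DMEM plus 0.1% BSA; 20-point twofold dilutions, 0.2% DMSO final.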", "units": {"EC50": "nM"}, "values": [{"smiles": "CC1CCc2c1c(O)c(C(=O)Nc1cnsc1)c(=O)n2C", "note": "(single isomer, unassigned) [Example 41, 4-Hydroxy-N-isothiazol-4-yl-1,5-dimethyl-2-oxo-6,7-dihydro-5H-cyclopenta[b]pyridine-3-carboxamide]", "EC50": 2.65}, {"smiles": "Cn1c2c(cc(C(=O)Nc3ccccn3)c1=O)CC(C)(C)C2", "note": "[Example 45, 1,6,6-Trimethyl-2-oxo-N-(2-pyridyl)-5,7-dihydrocyclopenta[b]pyridine-3-carboxamide]", "EC50": 16.2}, {"smiles": "CC1CCc2c1cc(C(=O)Nc1ncc(C(F)(F)F)cn1)c(=O)n2C", "note": "(centres unmarked) [Example 8, 1,5-Dimethyl-2-oxo-N-[5-(trifluoromethyl)pyrimidin-2-yl]-6,7-dihydro-5H-cyclopenta[b]pyridine-3-carboxamide]", "EC50": 1.42}, {"smiles": "Cn1c2c(cc(C(=O)Nc3ccccc3)c1=O)COC(C)(C)C2", "note": "[Example 51, 1,7,7-Trimethyl-2-oxo-N-phenyl-5,8-dihydropyrano[4,3-b]pyridine-3-carboxamide]", "EC50": 4.35}, {"smiles": "CC1CCc2c1c(O)c(C(=O)Nc1cnsc1)c(=O)n2C", "note": "(single isomer, unassigned) [Example 40, 4-Hydroxy-N-isothiazol-4-yl-1,5-dimethyl-2-oxo-6,7-dihydro-5H-cyclopenta[b]pyridine-3-carboxamide]", "EC50": 2.37}, {"smiles": "CCC1CCc2c1cc(C(=O)Nc1ncc(F)cn1)c(=O)n2C", "note": "(single isomer, unassigned) [Example 115, 5-ethyl-N-(5-fluoropyrimidin-2-yl)-1-methyl-2-oxo-6,7-dihydro-5H-cyclopenta[b]pyridine-3-carboxamide]", "EC50": 2.96}, {"smiles": "CC1CCc2c1cc(C(=O)Nc1ccc(C(F)(F)F)nc1)c(=O)n2C", "note": "(centres unmarked) [Example 6, 1,5-Dimethyl-2-oxo-N-[6-(trifluoromethyl)-3-pyridyl]-6,7-dihydro-5H-cyclopenta[b]pyridine-3-carboxamide]", "EC50": 4.57}, {"smiles": "Cn1c2c(cc(C(=O)Nc3ccccc3)c1=O)CCCC2", "note": "[Example 104, 1-Methyl-2-oxo-N-phenyl-5,6,7,8-tetrahydroquinoline-3-carboxamide]", "EC50": 0.502}, {"smiles": "Cn1c2c(c(O)c(C(=O)Nc3ccccn3)c1=O)CC(C)(C)C2", "note": "[Example 42, 4-Hydroxy-1,6,6-trimethyl-2-oxo-N-(2-pyridyl)-5,7-dihydrocyclopenta[b]pyridine-3-carboxamide]", "EC50": 9.41}, {"smiles": "CC1CCc2c1c(O)c(C(=O)Nc1ncco1)c(=O)n2C", "note": "(single isomer, unassigned) [Example 34, 4-Hydroxy-1,5-dimethyl-N-oxazol-2-yl-2-oxo-6,7-dihydro-5H-cyclopenta[b]pyridine-3-carboxamide]", "EC50": 7.46}, {"smiles": "Cn1c2c(cc(C(=O)Nc3ncccn3)c1=O)CCCC2", "note": "[Example 103, 1-Methyl-2-oxo-N-pyrimidin-2-yl-5,6,7,8-tetrahydroquinoline-3-carboxamide]", "EC50": 27}, {"smiles": "CC1Cc2c(O)c(C(=O)Nc3ccccn3)c(=O)n(C)c2C1", "note": "(single isomer, unassigned) [Example 87, 4-Hydroxy-1,6-dimethyl-2-oxo-N-(2-pyridyl)-6,7-dihydro-5H-cyclopenta[b]pyridine-3-carboxamide]", "EC50": 27.3}, {"smiles": "CC1CCc2c1c(O)c(C(=O)Nc1ncccc1F)c(=O)n2C", "note": "(centres unmarked) [Example 29, N-(3-Fluoro-2-pyridyl)-4-hydroxy-1,5-dimethyl-2-oxo-6,7-dihydro-5H-cyclopenta[b]pyridine-3-carboxamide]", "EC50": 2.23}, {"smiles": "C[C@H]1CCc2c1cc(C(=O)Nc1ncc(Cl)cn1)c(=O)n2C", "note": "[Example 24, (5S)-N-(5-Chloropyrimidin-2-yl)-1,5-dimethyl-2-oxo-6,7-dihydro-5H-cyclopenta[b]pyridine-3-carboxamide]", "EC50": 2.45}, {"smiles": "CC1CCc2c1c(O)c(C(=O)Nc1ncccn1)c(=O)n2C", "note": "(single isomer, unassigned) [Example 85, 4-Hydroxy-1,5-dimethyl-2-oxo-N-pyrimidin-2-yl-6,7-dihydro-5H-cyclopenta[b]pyridine-3-carboxamide]", "EC50": 4.1}, {"smiles": "CC1CCc2c1c(O)c(C(=O)Nc1ccns1)c(=O)n2C", "note": "(single isomer, unassigned) [Example 37, 4-Hydroxy-N-isothiazol-5-yl-1,5-dimethyl-2-oxo-6,7-dihydro-5H-cyclopenta[b]pyridine-3-carboxamide]", "EC50": 1.97}, {"smiles": "C[C@@H]1CCc2c1cc(C(=O)Nc1ccccn1)c(=O)n2C", "note": "[Example 23, (5R)-1,5-Dimethyl-2-oxo-N-(2-pyridyl)-6,7-dihydro-5H-cyclopenta[b]pyridine-3-carboxamide]", "EC50": 11.5}, {"smiles": "CC1CCc2c1c(O)c(C(=O)Nc1ncc(Cl)cn1)c(=O)n2C", "note": "(single isomer, unassigned) [Example 94, N-(5-Chloropyrimidin-2-yl)-4-hydroxy-1,5-dimethyl-2-oxo-6,7-dihydro-5H-cyclopenta[b]pyridine-3-carboxamide]", "EC50": 0.533}, {"smiles": "C[C@H]1CCc2c1cc(C(=O)Nc1ccccc1)c(=O)n2C", "note": "[Example 67, (5S)-1,5-Dimethyl-2-oxo-N-phenyl-6,7-dihydro-5H-cyclopenta[b]pyridine-3-carboxamide]", "EC50": 0.5}, {"smiles": "CC1CCc2c1cc(C(=O)Nc1ncc(C(F)(F)F)cn1)c(=O)n2C", "note": "(single isomer, unassigned) [Example 65, 1,5-Dimethyl-2-oxo-N-[5-(trifluoromethyl)pyrimidin-2-yl]-6,7-dihydro-5H-cyclopenta[b]pyridine-3-carboxamide]", "EC50": 1.22}]}]}
